One may read the EC50 as the midpoint of the concentration-response curve.

The values below come from patent publication US7855216B2, “Aza-indolyl compounds and methods of use” (Genentech, Inc., priority 2006, dated 2010).

Experiment [1] has as its system HCT116 and A375 cell lines. Briefly: Cell proliferation assay (CellTiter-Glo). In kind it is cell-based. As to conditions: Homo sapiens; in either cell line (HCT116 or A375); 72 h exposure. The protocol: Compounds are tested in a cell proliferation assay using the following cell lines:
(§1) Both cell lines are maintained in DMEM/F12 (1:1) media (Gibco) supplemented with 10% FCS at 37° C. in a 5% CO2 humidified incubator.
Cells are seeded in 96-well plates at 2,000 cells/well and after 24 hours they are exposed to different concentrations of compounds in 0.83% DMSO. Cells are grown for a further 72 h, and an equal volume of CellTiter-Glo reagent (Promega) is added to each well. This lyses the cells and generates a luminescent signal proportional to the amount of ATP released (and therefore proportional to the number of cells in the well) that can be detected using a multi-well luminometer.
The EC50 is defined as the concentration at which a given compound achieves 50% inhibition of control. IC50 values are calculated using the XLfit software package (version 2.0.5).

The subject of experiment [2] is phospho-ERK in HCT116 and A375 cell lines. Briefly: Phospho-ERK cell-based assay. As to conditions: Homo sapiens; in either cell line (HCT116 or A375); 2 h or 24 h exposure. The protocol: Compounds are tested in a cell-based phospho-ERK ELISA using the following cell lines:
as §1
Cells are seeded in 96-well plates at 2,000 cells/well and after 24 h they are exposed to different concentrations of compounds in 0.83% DMSO. Cells are grown for a further 2 h or 24 h, fixed with formaldehyde (2% final) and permeabilised with methanol. Following blocking with TBST-3% BSA, fixed cells are incubated with primary antibody (anti-phospho ERK from rabbit) over-night at 4° C. Cells are incubated with Propidium Iodide (DNA fluorescent dye) and detection of cellular p-ERK is performed using an anti-rabbit secondary antibody conjugated to the fluorescent Alexa Fluor 488 dye (Molecular probes). The fluorescence is analysed using the Acumen Explorer (TTP Labtech), a laser-scanning microplate cytometer, and the Alexa Fluor 488 signal is normalised to the PI signal (proportional to cell number).
The EC50 is defined as the concentration at which a given compound achieves a signal half way between the baseline and the maximum response. EC50 values are calculated using the XLfit software package (version 2.0.5).

As for `Cn1c(C(=O)NOC[C@H](O)CO)c(Nc2ccc(I)cc2F)c2cnccc21` [Example 5, 3-(2-Fluoro-4-iodo-phenylamino)-1-methyl-1H-pyrrolo[3,2-c]pyridine-2-carboxylic acid ((R)-2,3-dihydroxy-propoxy)-amide], the 50% effective concentration (EC50) in experiment [1] and in experiment [2] was less than 10 µM in each case.
Consider `Cn1c(C(=O)NOCCO)c(Nc2ccc(I)cc2F)c2cnccc21` [Example 6, 3-(2-Fluoro-4-iodo-phenylamino)-1-methyl-1H-pyrrolo[3,2-c]pyridine-2-carboxylic acid (2-hydroxy-ethoxy)-amide], for which the concentration giving a half-maximal response (EC50) in experiment [1] and in experiment [2] was less than 10 µM in each case.
Consider `COCCn1c(C(=O)NOCCO)c(Nc2ccc(I)cc2F)c2cnccc21` [Example 7], for which the 50% effective concentration (EC50) in experiment [1] and in experiment [2] was less than 10 µM each time.
As for `COc1ccc(Cn2c(C(=O)NOCCO)c(Nc3ccc(I)cc3F)c3cnccc32)cc1` [Example 8], the concentration giving a half-maximal response (EC50) in experiment [1] and in experiment [2] was less than 10 µM throughout.
As to `O=C(NOCCO)c1[nH]c2ccncc2c1Nc1ccc(I)cc1F` [Example 10], the EC50 in experiment [1] and in experiment [2] was less than 10 µM in each case.
For `CCn1c(C(=O)NOCCO)c(Nc2ccc(I)cc2F)c2cnccc21` [Example 11], the concentration giving a half-maximal response (EC50) in experiment [1] and in experiment [2] was less than 10 µM throughout.
Turning to `Cn1c(C(=O)NO)c(Nc2ccc(I)cc2F)c2cnccc21` [Example 13], the EC50 in experiment [1] and in experiment [2] was less than 10 µM in each case.
Consider `Cn1c(C(=O)NOCC2CC2)c(Nc2ccc(I)cc2F)c2cnccc21` [Example 15], for which the half-maximal effective concentration (EC50) in experiment [1] and in experiment [2] was less than 10 µM throughout.
Consider `Cn1c(C(N)=O)c(Nc2ccc(I)cc2F)c2cnccc21` [Example 16], for which the 50% effective concentration (EC50) in experiment [1] and in experiment [2] was less than 10 µM each time.
Regarding `COc1ccc(Cn2c(C(N)=O)c(Nc3ccc(I)cc3F)c3cnccc32)cc1` [Example 17], the half-maximal effective concentration (EC50) in experiment [2] is less than 10 µM.
`O=C(NOCCO)c1c(Nc2ccc(I)cc2F)c2cnccc2n1CC1CC1` [Example 23]: the concentration giving a half-maximal response (EC50) in experiment [1] and in experiment [2] was less than 10 µM in each case.
On to `O=C(NOCCO)c1c(Nc2ccc(I)cc2F)c2cnccc2n1Cc1ccccc1` [Example 24], for which the concentration for a half-maximal effect (EC50) in experiment [1] and in experiment [2] was less than 10 µM each time.
Turning to `O=C(NOCCO)c1c(Nc2ccc(I)cc2F)c2cnccc2n1Cc1ccncc1` [Example 25], the half-maximal effective concentration (EC50) in experiment [1] and in experiment [2] was less than 10 µM each time.
For the compound `O=C(NOCCO)c1c(Nc2ccc(I)cc2F)c2cnccc2n1Cc1cccnc1` [Example 26], the concentration giving a half-maximal response (EC50) in experiment [1] and in experiment [2] was less than 10 µM each time.
Regarding `O=C(NOCCO)c1c(Nc2ccc(I)cc2F)c2cnccc2n1Cc1ccccc1F` [Example 27], the EC50 in experiment [1] and in experiment [2] was less than 10 µM in each case.
Regarding `O=C(NOCCO)c1c(Nc2ccc(I)cc2F)c2cnccc2n1Cc1cccc(C(F)(F)F)c1` [Example 28], the EC50 in experiment [2] was less than 10 µM.
Still for that read-out and setting: the result for `CS(=O)(=O)c1ccc(Cn2c(C(=O)NOCCO)c(Nc3ccc(I)cc3F)c3cnccc32)cc1` [Example 29] reads less than 10 µM; that for `CN(C)C(=O)c1ccc(Cn2c(C(=O)NOCCO)c(Nc3ccc(I)cc3F)c3cnccc32)cc1` [Example 30], less than 10 µM.
On to `O=C(NOCCO)c1c(Nc2ccc(I)cc2F)c2cnccc2n1CCc1ccccc1` [Example 31], for which the half-maximal effective concentration (EC50) in experiment [1] and in experiment [2] was less than 10 µM each time.
On to `O=C(NOCCO)c1c(Nc2ccc(I)cc2F)c2cnccc2n1Cc1ccc(F)cc1` [Example 33], for which the EC50 in experiment [1] and in experiment [2] was less than 10 µM throughout.
For the compound `O=C(NOCCO)c1[nH]c2c(Cl)cncc2c1Nc1ccc(I)cc1F` [Example 34], the 50% effective concentration (EC50) in experiment [2] was less than 10 µM.
As for `Cn1c(C(=O)NOCCO)c(Nc2ccc(I)cc2F)c2cncc(F)c21` [Example 37], the 50% effective concentration (EC50) in experiment [1] and in experiment [2] was less than 10 µM each time.
In the case of `O=C(NOCC1CC1)c1[nH]c2ccncc2c1Nc1ccc(I)cc1F` [Example 38], the concentration giving a half-maximal response (EC50) in experiment [1] and in experiment [2] was less than 10 µM in each case.
As for `Cn1c(C(=O)NOCCO)c(Nc2ccc(I)cc2F)c2cncc(Cl)c21` [Example 39], the EC50 in experiment [1] and in experiment [2] was less than 10 µM throughout.
On to `CC(C)(C)ONC(=O)c1[nH]c2ccncc2c1Nc1ccc(I)cc1F` [Example 40], for which the concentration for a half-maximal effect (EC50) in experiment [1] and in experiment [2] was less than 10 µM throughout.
As to `O=C(NOCCO)c1c(Nc2ccc(I)cc2F)c2cnccc2n1CCCO` [Example 41], the EC50 in experiment [1] and in experiment [2] was less than 10 µM throughout.
In experiment [1], `CN(C)C(=O)c1ccc(Cn2c(C(=O)NOCCO)c(Nc3ccc(I)cc3F)c3cnccc32)cc1` [Example 42] registered a half-maximal effective concentration (EC50) of less than 10 µM.
`O=C(NOCCO)c1c(Nc2ccc(I)cc2F)c2cnccc2n1Cc1ccc(C(F)(F)F)cc1` [Example 43]: the EC50 in experiment [1] and in experiment [2] was less than 10 µM throughout.
For `N#Cc1ccc(Cn2c(C(=O)NOCCO)c(Nc3ccc(I)cc3F)c3cnccc32)cc1` [Example 44], the concentration for a half-maximal effect (EC50) in experiment [1] and in experiment [2] was less than 10 µM in each case.
For the compound `CN(C)C(=O)c1cccc(Cn2c(C(=O)NOCCO)c(Nc3ccc(I)cc3F)c3cnccc32)c1` [Example 45], the EC50 in experiment [1] and in experiment [2] was less than 10 µM each time.
As for `N#Cc1ccc(Cn2c(C(=O)NOCCO)c(Nc3ccc(I)cc3F)c3cnccc32)s1` [Example 46], the concentration for a half-maximal effect (EC50) in experiment [1] and in experiment [2] was less than 10 µM in each case.
On to `CN(C)S(=O)(=O)c1cccc(Cn2c(C(=O)NOCCO)c(Nc3ccc(I)cc3F)c3cnccc32)c1` [Example 47], for which the EC50 in experiment [1] and in experiment [2] was less than 10 µM in each case.
In the case of `N#Cc1cccc(Cn2c(C(=O)NOCCO)c(Nc3ccc(I)cc3F)c3cnccc32)c1` [Example 48], the concentration for a half-maximal effect (EC50) in experiment [1] and in experiment [2] was less than 10 µM each time.
For the compound `O=C(NOCCO)c1[nH]c2c(F)cncc2c1Nc1ccc(I)cc1F` [Example 49], the concentration giving a half-maximal response (EC50) in experiment [1] and in experiment [2] was less than 10 µM throughout.
In the case of `CN(C)S(=O)(=O)c1ccc(Cn2c(C(=O)NOCCO)c(Nc3ccc(I)cc3F)c3cnccc32)cc1` [Example 50], the EC50 in experiment [2] was less than 10 µM.
On to `C[C@H](O)CONC(=O)c1c(Nc2ccc(I)cc2F)c2cncc(F)c2n1C` [Example 54], for which the concentration for a half-maximal effect (EC50) in experiment [1] and in experiment [2] was less than 10 µM each time.
As to `CSc1ccc(Nc2c(C(=O)NOCCO)n(C)c3ccncc23)c(F)c1` [Example 56], the half-maximal effective concentration (EC50) in experiment [1] and in experiment [2] was less than 10 µM in each case.
For the compound `CSc1ccc(Nc2c(C(=O)NOC(C)(C)CO)n(C)c3ccncc23)c(F)c1` [Example 57], the EC50 in experiment [1] and in experiment [2] was less than 10 µM throughout.
In the case of `CSc1ccc(Nc2c(C(=O)NOC[C@H](C)O)n(C)c3ccncc23)c(F)c1` [Example 58], the EC50 in experiment [1] and in experiment [2] was less than 10 µM in each case.
For `CSc1ccc(Nc2c(C(=O)NOC(C)(C)CO)[nH]c3ccncc23)c(F)c1` [Example 59, 3-(2-Fluoro-4-methylsulfanyl-phenylamino)-1H-pyrrolo[3,2-c]pyridine-2-carboxylic acid (2-hydroxy-1,1-dimethyl-ethoxy)-amide semiformate], the EC50 in experiment [1] and in experiment [2] was less than 10 µM in each case.
Turning to `O=C(NOCCO)c1c(Nc2ccc(I)cc2F)c2cnccc2n1C1CC1` [Example 61, 1-Cyclopropyl-3-(2-fluoro-4-iodo-phenylamino)-1H-pyrrolo[3,2-c]pyridine-2-carboxylic acid (2-hydroxy-ethoxy)-amide], the EC50 in experiment [1] and in experiment [2] was less than 10 µM each time.
Compound `CSc1ccc(Nc2c(C(=O)NOCCO)n(C3CC3)c3ccncc23)c(F)c1` [Example 62, 1-Cyclopropyl-3-(2-fluoro-4-methylsulfanyl-phenylamino)-1H-pyrrolo[3,2-c]pyridine-2-carboxylic acid (2-hydroxy-ethoxy)-amide] displayed a concentration giving a half-maximal response (EC50) in experiment [2] of less than 10 µM.
`O=C(NOCC(O)CO)c1c(Nc2ccc(I)cc2F)c2cnccc2n1C1CC1` (stereo not shown) [Example 63, 1-Cyclopropyl-3-(2-fluoro-4-iodo-phenylamino)-1H-pyrrolo[3,2-c]pyridine-2-carboxylic acid (2,3-dihydroxy-propoxy)-amide]: the EC50 in experiment [1] and in experiment [2] was less than 10 µM each time.
As to `C#CCn1c(C(=O)NOCCO)c(Nc2ccc(I)cc2F)c2cnccc21` [Example 64, 3-(2-Fluoro-4-iodo-phenylamino)-1-prop-2-ynyl-1H-pyrrolo[3,2-c]pyridine-2-carboxylic acid (2-hydroxy-ethoxy)-amide], the EC50 in experiment [1] and in experiment [2] was less than 10 µM throughout.
In the case of `O=C(NOCCO)c1c(Nc2ccc(I)cc2F)c2cnccc2n1CC#CCO` [Example 65, 3-(2-Fluoro-4-iodo-phenylamino)-1-(4-hydroxy-but-2-ynyl)-1-H-pyrrolo[3,2-c]pyridine-2-carboxylic acid (2-hydroxy-ethoxy)-amide], the half-maximal effective concentration (EC50) in experiment [1] and in experiment [2] was less than 10 µM each time.
